Measurements published in ChEMBL document CHEMBL1201862, “PubChem BioAssay data set” (2004).
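Exposure lasted 48 hours, with cells grown in 96-well plates and compounds tested at five concentrations. GI50 = concentration required for 50% inhibition of growth.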 The source made the active and inactive calls. Rule as the data show it: active = GI50 up to about 1.1 µM and inactive = higher.

What was measured:
Assay in all cases: DTP human tumour cell line panel, 48 h
NCI/ADR-RES = tested on: NCI/ADR-RES
SNB-75 = tested on: SNB-75
UO-31 = tested on: UO-31
MDA-N = tested on: MDA-N
SK-MEL-5 = tested on: SK-MEL-5
HL-60 = tested on: HL-60
ACHN = tested on: ACHN
NCI-H460 = tested on: NCI-H460
SR = tested on: SR
MDA-MB-231 = tested on: MDA-MB-231
DU-145 = tested on: DU-145
T47D = tested on: T47D
Malme-3M = tested on: Malme-3M
UACC-257 = tested on: UACC-257
NCI-H522 = tested on: NCI-H522
MDA-MB-435 = tested on: MDA-MB-435
HCC 2998 = tested on: HCC 2998
HOP-92 = tested on: HOP-92
CCRF-CEM = tested on: CCRF-CEM
MCF7 = tested on: MCF7
IGROV-1 = tested on: IGROV-1
TK-10 = tested on: TK-10
SW-620 = tested on: SW-620
LOX IMVI = tested on: LOX IMVI
RXF 393 = tested on: RXF 393
HCT-15 = tested on: HCT-15
KM12 = tested on: KM12
K562 = tested on: K562
OVCAR-3 = tested on: OVCAR-3
EKVX = tested on: EKVX
SNB-19 = tested on: SNB-19
HT-29 = tested on: HT-29
SF-268 = tested on: SF-268
RPMI-8226 = tested on: RPMI-8226
PC-3 = tested on: PC-3
BT-549 = tested on: BT-549
A498 = tested on: A498
NCI-H23 = tested on: NCI-H23
M14 = tested on: M14
SK-MEL-28 = tested on: SK-MEL-28
CAKI-1 = tested on: CAKI-1
SK-OV-3 = tested on: SK-OV-3
U-251 = tested on: U-251
OVCAR-8 = tested on: OVCAR-8
UACC-62 = tested on: UACC-62
MOLT-4 = tested on: MOLT-4
COLO 205 = tested on: COLO 205
SF-295 = tested on: SF-295
OVCAR-5 = tested on: OVCAR-5
OVCAR-4 = tested on: OVCAR-4
SN12C = tested on: SN12C
Hs-578T = tested on: Hs-578T
NCI-H226 = tested on: NCI-H226
HOP-62 = tested on: HOP-62
SF-539 = tested on: SF-539
HCT-116 = tested on: HCT-116
A549 = tested on: A549
SK-MEL-2 = tested on: SK-MEL-2
786-0 = tested on: 786-0

O=C1c2cccnc2-c2nccc3c2c1nc1ccc(Br)cc13
GI50 (NCI/ADR-RES): 0.034 µM (active) | GI50 (SNB-75): 0.129 µM (active) | GI50 (UO-31): 0.0557 µM (active) | GI50 (MDA-N): 0.109 µM (active) | GI50 (SK-MEL-5): 24.7 nM (active) | GI50 (HL-60): 0.0184 µM (active) | GI50 (ACHN): 0.0263 µM (active) | GI50 (NCI-H460): 65 nM (active) | GI50 (SR): 12 nM (active) | GI50 (MDA-MB-231): < 0.0201 µM (active) | GI50 (DU-145): 0.0225 µM (active) | GI50 (T47D): 0.0789 µM (active) | GI50 (Malme-3M): 0.102 µM (active) | GI50 (UACC-257): 0.0536 µM (active) | GI50 (NCI-H522): 52.8 nM (active) | GI50 (MDA-MB-435): 0.0887 µM (active) | GI50 (HCC 2998): 0.164 µM (active) | GI50 (HOP-92): 0.102 µM (active) | GI50 (CCRF-CEM): < 10 nM (active) | GI50 (MCF7): < 0.0162 µM (active) | GI50 (IGROV-1): 0.038 µM (active) | GI50 (TK-10): 0.273 µM (active) | GI50 (SW-620): 0.0404 µM (active) | GI50 (LOX IMVI): 22.1 nM (active) | GI50 (RXF 393): 0.0184 µM (active) | GI50 (HCT-15): 45 nM | GI50 (KM12): 65.6 nM (active) | GI50 (K562): 23.8 nM (active) | GI50 (OVCAR-3): 20.7 nM (active) | GI50 (EKVX): 94.8 nM (active) | GI50 (SNB-19): 0.136 µM (active) | GI50 (HT-29): 282 nM (active) | GI50 (SF-268): 0.0242 µM (active) | GI50 (RPMI-8226): 34.7 nM (active) | GI50 (PC-3): 0.0426 µM (active) | GI50 (BT-549): 0.0337 µM (active) | GI50 (A498): 0.0853 µM (active) | GI50 (NCI-H23): 0.0313 µM (active) | GI50 (M14): 0.0243 µM (active) | GI50 (SK-MEL-28): 0.0252 µM (active) | GI50 (CAKI-1): 0.0536 µM (active) | GI50 (SK-OV-3): 0.145 µM (active) | GI50 (U-251): 0.0363 µM (active) | GI50 (OVCAR-8): 0.0662 µM (active) | GI50 (UACC-62): 0.0569 µM (active) | GI50 (MOLT-4): 0.184 µM (active) | GI50 (COLO 205): 438 nM (active) | GI50 (SF-295): 0.0401 µM (active) | GI50 (OVCAR-5): 0.106 µM (active) | GI50 (OVCAR-4): 0.061 µM (active) | GI50 (SN12C): 0.0482 µM (active) | GI50 (Hs-578T): 0.12 µM (active) | GI50 (NCI-H226): 0.0199 µM (active) | GI50 (HOP-62): 0.031 µM (active) | GI50 (SF-539): 0.0601 µM (active) | GI50 (HCT-116): < 13.6 nM (active) | GI50 (A549): 0.188 µM (active) | GI50 (SK-MEL-2): 0.0726 µM (active) | GI50 (786-0): 24.8 nM (active)

COc1ccc2c(C)cc(N/N=C/c3ccc(C)s3)nc2c1
GI50 (NCI/ADR-RES): 9.82 µM (inactive) | GI50 (SNB-75): 20.9 µM (inactive) | GI50 (UO-31): 13.6 µM (inactive) | GI50 (MDA-N): 10.4 µM (inactive) | GI50 (SK-MEL-5): 3430 nM (inactive) | GI50 (HL-60): 7.05 µM (inactive) | GI50 (ACHN): 18 µM (inactive) | GI50 (NCI-H460): 5270 nM (inactive) | GI50 (SR): 5180 nM (inactive) | GI50 (MDA-MB-231): 6.49 µM (inactive) | GI50 (DU-145): 6.49 µM (inactive) | GI50 (T47D): 6.53 µM (inactive) | GI50 (Malme-3M): 17.7 µM (inactive) | GI50 (UACC-257): 11 µM (inactive) | GI50 (NCI-H522): 3450 nM (inactive) | GI50 (MDA-MB-435): 16.3 µM (inactive) | GI50 (HCC 2998): 6.11 µM (inactive) | GI50 (HOP-92): 19.5 µM (inactive) | GI50 (CCRF-CEM): 5370 nM (inactive) | GI50 (MCF7): 6.24 µM (inactive) | GI50 (IGROV-1): 7.82 µM (inactive) | GI50 (TK-10): 19 µM (inactive) | GI50 (SW-620): 13.1 µM (inactive) | GI50 (LOX IMVI): 3460 nM (inactive) | GI50 (RXF 393): 14.3 µM (inactive) | GI50 (HCT-15): 4210 nM | GI50 (KM12): 5180 nM (inactive) | GI50 (K562): 3610 nM (inactive) | GI50 (OVCAR-3): 2940 nM (inactive) | GI50 (EKVX): 5400 nM (inactive) | GI50 (SNB-19): 25.4 µM (inactive) | GI50 (HT-29): 3210 nM (inactive) | GI50 (SF-268): 25.8 µM (inactive) | GI50 (RPMI-8226): 3550 nM (inactive) | GI50 (PC-3): 14.1 µM (inactive) | GI50 (BT-549): 24.3 µM (inactive) | GI50 (A498): 19.4 µM (inactive) | GI50 (NCI-H23): 12.3 µM (inactive) | GI50 (M14): 6.55 µM (inactive) | GI50 (SK-MEL-28): 24.7 µM (inactive) | GI50 (CAKI-1): 13.5 µM (inactive) | GI50 (SK-OV-3): 17 µM (inactive) | GI50 (U-251): 13.7 µM (inactive) | GI50 (OVCAR-8): 15.2 µM (inactive) | GI50 (UACC-62): 20.1 µM (inactive) | GI50 (MOLT-4): 5.94 µM (inactive) | GI50 (COLO 205): 2810 nM (inactive) | GI50 (SF-295): 9.62 µM (inactive) | GI50 (OVCAR-5): 12.6 µM (inactive) | GI50 (OVCAR-4): 11.1 µM (inactive) | GI50 (SN12C): 11.9 µM (inactive) | GI50 (Hs-578T): 31.6 µM (inactive) | GI50 (NCI-H226): 13 µM (inactive) | GI50 (HOP-62): 18.7 µM (inactive) | GI50 (SF-539): 13.6 µM (inactive) | GI50 (HCT-116): 5920 nM (inactive) | GI50 (A549): 7.91 µM (inactive) | GI50 (SK-MEL-2): 19.1 µM (inactive) | GI50 (786-0): 5890 nM (inactive)
